{"source": "patent US11364311B2", "about": "“Method of identifying ASD phenotype 1 patients” (Stalicla S.A., priority 2017, dated 2022)", "key": {"ASD phenotype 2 patients": {"test_system": "ASD phenotype 2 patients", "conditions": "for Clinical significance (CGI-I): after 3 days of sulforaphane administration; for ADI-R-RI S score / ADI-R-C S score / ADI-R-SI S score: day 3 of challenge test, given as broccoli sprout extract as in example 3; for ADI-R-SI S score: B score 16", "method": "The effects of sulforaphane containing Broccoli sprout extract was observed and quantified in 7 individuals suffering from ASD and previously classified as either phenotype 1 or phenotype 2 patients.\nWe describe a procedure consisting of an evaluation of patients with ASD prior and after administration of broccoli sprout extract. The extract was prepared from selected broccoli seeds known to have high yield of sulforaphane which were surface-disinfected and grown (sprouted) for 3 days in a commercial sprouting facility under controlled light and moisture conditions. A boiling water extract was prepared, filtered, cooled, and treated with the enzyme myrosinase (from daikon sprouts) to convert precursor glucosinolates to isothiocyanates. Behavioral evaluation of patients was performed prior, during and after administration of sulforaphane-containing broccoli sprout extract. Baseline evaluation of patients was performed using standard clinical endpoints (ADI-R subscales ADI-SI, ADI-C and ADI-RI).\nChallenge regimen consisted of the administration of a Broccoli Sprout Extract dose corresponding to a total daily dosage of 4 μmol/kg of sulforaphane, administered in 3 doses over the course of the day.\nThe assessment of baseline scores and post challenge test scores was conducted by two experienced clinicians with extensive experience in conducting ASD clinical assessments, both of which separately rated the patients. In case of diverging scores in test subscales at baseline or after administration of the challenge test, the lowest severity score was retained. Assessment of clinical endpoints was performed at day 3 of administration of challenge test. Behavioral Outcome Measures: (primary efficacy endpoints): ABC, SRS; CGI-S, CGI-I and ADI-R (ADI-SI, ADI-C, ADI-RI)."}, "humans": {"test_system": "humans", "conditions": "cited from earlier work"}, "[1]": {"test_system": "lymphoblastoid cell lines of ASD phenotype 1 patients", "test": "Energy production (NADH) in Biolog Phenotype Mammalian MicroArrays, phenotype 1 cells", "format": "cell-based, human", "conditions": "cells exposed to the factor; Figure 1 (AUC) and Table 1", "text": "The phenotype 1 cohort (Phi) selected far in vitro experiments was composed by 14 males and 1 female (ratio 14:1), with an age range of 2-17 years (average 7.7).\nFrom all subjects, blood samples were collected and lymphoblastoid cell lines generated. Briefly, tubes containing anticoagulant citrate dextrose (ACD) were used to collect blood samples via venipuncture, in order to ensure that the blood cells remained metabolically active. The tubes were kept at room temperature and processed within 24 hours.\nCell lines were obtained by immortalization of lymphocytes from blood samples using Epstein-Barr virus.\nEnergy production of cells was measured using commercially available Phenotype Mammalian MicroArrays (PM-Ms, Biolog, Hayward, Calif., USA).\nThe compound in each well was designed to be used by the cells, either as the sole energy source or as the metabolic effector influencing the utilization of an energy source (α-D-glucose) added in the cell suspension. […] Before plating, cell viability and number were assessed utilizing a BioRad cell counter and a trypan blue dye. The concentration of live cells required for plating was 4×10^5 cells/mL, corresponding to 20,000 cells per well in a volume of 50 μL. […] Cells were incubated for 48 h at 37° C. in 5% CO2, using the modified Biolog IF-M1 medium.\nThe Biolog IF-M1 medium was modified for plates PM-M1 to M4 by adding the following to 100 mL of Biolog IF-M1: 1.1 mL of 100× penicillin/streptomycin solution, 0.18 mL of 200 mM glutamine (final concentration 0.3 mM), and 5.3 mL of Fetal Bovine Serum (FBS, final concentration 5%). For plates PM-M5 to M8, 5.5 mM α-D-glucose will be added in place of FBS.\nDuring the 48-hour incubation, the only energy source the cells had was the chemical in the well. After this first incubation, Biolog Redox Dye Mix MB was added (10 μL/well) and the plates were incubated under the same conditions for an additional 24 hours. As the cells metabolized the energy source, tetrazolium dye in the media was reduced, producing a purple color according to the amount of NADH generated.\nFor the last 24 hours of the experiment, the plates were incubated in the Omnilog system, which collects optical density readings every 15 minutes, generating 96 data-points for each well. The system also elaborated the kinetic curve for the metabolic reaction in each well and extrapolated parameters such as slope, highest point, endpoint, area under the curve (AUC), and lag.\nAt the end of the 24-hour incubation, the plates were analyzed utilizing a microplate reader with readings at 590 and 750 nm. The first value (A590) indicated the highest absorbance peak of the redox dye and the second value (A750) gave a measure of the background noise. The relative absorbance (A590-750) was calculated per well."}, "[2]": {"conditions": "Example 4 Patient 1 (phenotype 2)"}, "[3]": {"conditions": "Example 4 Patient 2 (phenotype 2)"}}, "note": "Read-outs that look alike come from different tables or passages of the source."}
{"molecule": "C[S@@+]([O-])CCCCN=C=S", "note": "[sulforaphane, 1-isothiocyanato-4R-(methylsulfinyl)butane]", "values": [{"measurement": "Clinical significance (CGI-I)", "setting": "ASD phenotype 2 patients; [2]", "value": "Very much improved"}, {"measurement": "ADI-R-RI S score", "setting": "ASD phenotype 2 patients; Example 4 Patient 1 (phenotype 2), B score 3", "value": 3}, {"measurement": "ADI-R-C S score", "setting": "ASD phenotype 2 patients; Example 4 Patient 1 (phenotype 2), B score 12", "value": 10}, {"measurement": "ADI-R-SI S score", "setting": "ASD phenotype 2 patients; [2]", "value": 12}, {"measurement": "Clinical significance (CGI-I)", "setting": "ASD phenotype 2 patients; [3]", "value": "Very much improved"}, {"measurement": "ADI-R-RI S score", "setting": "ASD phenotype 2 patients; Example 4 Patient 2 (phenotype 2), B score 5", "value": 4}, {"measurement": "ADI-R-C S score", "setting": "ASD phenotype 2 patients; Example 4 Patient 2 (phenotype 2), B score 11", "value": 9}, {"measurement": "ADI-R-SI S score", "setting": "ASD phenotype 2 patients; [3]", "value": 14}, {"measurement": "tolerability of administration to humans", "setting": "humans; humans", "value": "well tolerated"}, {"measurement": "toxicity", "setting": "humans; in vivo", "value": "low toxicity"}]}
{"molecule": "FGF-1(aFGF): growth factor that selectively targets the PI3K-Akt-mTOR pathway", "values": [{"measurement": "production of NADH in ASD phenotype 1 cells compared to TDs and non-phenotype 1 cells", "setting": "[1]", "value": "significantly reduced production of NADH"}]}
{"molecule": "IGF-I: insulin-like growth factor 1", "values": [{"measurement": "production of NADH in ASD phenotype 1 cells compared to TDs and non-phenotype 1 cells", "setting": "[1]", "value": "no significant differences"}]}
{"molecule": "IL-1beta: Th1 cytokine", "values": [{"measurement": "production of NADH in ASD phenotype 1 cells compared to TDs and non-phenotype 1 cells", "setting": "[1]", "value": "significantly lower levels of NADH"}]}
{"molecule": "IL-6: Th1 cytokine", "values": [{"measurement": "production of NADH in ASD phenotype 1 cells compared to TDs and non-phenotype 1 cells", "setting": "[1]", "value": "significantly lower levels of NADH"}]}
{"molecule": "PDGF-AB: platelet-derived growth factor AB", "values": [{"measurement": "production of NADH in ASD phenotype 1 cells compared to TDs and non-phenotype 1 cells", "setting": "[1]", "value": "no significant differences"}]}
{"molecule": "hGH(Somatotropin): growth factor that selectively targets the PI3K-Akt-mTOR pathway", "values": [{"measurement": "production of NADH in ASD phenotype 1 cells compared to TDs and non-phenotype 1 cells", "setting": "[1]", "value": "significantly reduced production of NADH"}]}
